Data: US20200338084A1, “INHIBITORS OF LOW MOLECULAR WEIGHT PROTEIN TYROSINE PHOSPHATASE (LMPTP) AND USES THEREOF” (Sanford Burnham Prebys Medical Discovery Institute, priority 2018, published 2020)
pIC50: −log10 of the molar value.

Molecular target: T1, human LMPTP-A (Homo sapiens, UniProt P24666)
T1 sequence (P24666 1-158): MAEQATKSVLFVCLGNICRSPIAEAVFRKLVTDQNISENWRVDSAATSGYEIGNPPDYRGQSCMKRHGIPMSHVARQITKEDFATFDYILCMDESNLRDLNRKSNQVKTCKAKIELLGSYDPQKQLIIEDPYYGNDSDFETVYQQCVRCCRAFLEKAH
Test: Enzyme Assay of Inhibition of LMPTP-A
Assay type: biochemical
Settings: phosphatase assay, OMFP or pNPP substrate, 50 mM Bis-Tris pH 6.0, 37° C.
Description: Phosphatase assays were performed in buffer containing 50 mM Bis-Tris, pH 6.0, 1 mM DTT and 0.01% Triton X-100 at 37° C. For assays conducted with 3-O-methylfluorescein phosphate (OMFP) as substrate, fluorescence was monitored continuously at λex=485 and λem=525 nm. For assays conducted with para-nitrophenylphosphate (pNPP) as substrate, the reaction was stopped by addition of 2× reaction volume of 1 M NaOH, and absorbance was measured at 405 nm. IC50 values of compounds disclosed herein were determined from plots of inhibitor concentration versus percentage of enzyme activity. For inhibitor selectivity assays, each PTP was incubated with either 0.4 mM OMFP or 5 mM pNPP in the presence of 40 μM compound or DMSO. […] For the inhibitor reversibility assay, 50 nM human LMPTP-A was pre-incubated with 10 μM of compound disclosed herein or DMSO for 5 min. The enzyme was diluted 100× in phosphatase assay buffer containing 0.4 mM OMFP and fluorescence was measured at the indicated time points.

Row | Structure (SMILES) | pIC50
1 | Nc1ncn(Cc2nnn[nH]2)c2ncnc1-2 [3-((1H-tetrazol-5-yl)methyl)-3H-purin-6-amine] | ≤ 4.70
2 | Cc1noc(C)c1Cn1cnc(N)c2ncnc1-2 [3-((3,5-dimethylisoxazol-4-yl)methyl)-3H-purin-6-amine] | 4.70 to 6.00
3 | CN(C)C(=O)c1cccc(Nc2ncn(Cc3c(Cl)cccc3Cl)c3ncnc2-3)c1 [3-((3-(2,6-dichlorobenzyl)-3H-purin-6-yl)amino)-N,N-dimethylbenzamide] | 4.70 to 6.00
4 | Nc1ncn(Cc2ccc(Cl)s2)c2ncnc1-2 [3-((5-chlorothiophen-2-yl)methyl)-3H-purin-6-amine] | 4.70 to 6.00
5 | N#Cc1cccc(Cn2cnc(N)c3ncnc2-3)c1 [3-((6-amino-3H-purin-3-yl)methyl)benzonitrile] | 4.70 to 6.00
6 | Nc1ncn(Cc2nc3ccccc3s2)c2ncnc1-2 [3-(benzo[d]thiazol-2-ylmethyl)-3H-purin-6-amine] | 4.70 to 6.00
7 | Nc1ncn(Cc2ccc3ccccc3n2)c2ncnc1-2 [3-(quinolin-2-ylmethyl)-3H-purin-6-amine] | 4.70 to 6.00
8 | N#Cc1cccc(Nc2ncn(Cc3c(Cl)cccc3Cl)c3ncnc2-3)c1 [3-({3-[(2,6-Dichlorophenyl)methyl]-3-hydropurin-6-yl}amino)benzenecarbonitrile] | ≤ 4.70
9 | O=C(O)c1cccc(Nc2ncn(Cc3c(Cl)cccc3Cl)c3ncnc2-3)c1 [3-({3-[(2,6-Dichlorophenyl)methyl]-3-hydropurin-6-yl}amino)benzoic acid] | 4.70 to 6.00
10 | Oc1cccc(Nc2ncn(Cc3c(Cl)cccc3Cl)c3ncnc2-3)c1 [3-({3-[(2,6-Dichlorophenyl)methyl]-3-hydropurin-6-yl}amino)phenol] | 4.70 to 6.00
11 | Nc1ncn(Cc2c(Cl)cccc2Cl)c2ncnc1-2 [3-<2,6-Dichloro-benzyl)-3H-purin-6-ylamine] | ≥ 6.00
12 | Nc1ncn(Cc2ccccn2)c2ncnc1-2 [3-Pyridin-2-ylmethyl-3H-purin-6-ylamine] | 4.70 to 6.00
13 | Nc1ncn(Cc2cccnc2)c2ncnc1-2 [3-Pyridin-3-ylmethyl-3H-purin-6-ylamine] | 4.70 to 6.00
14 | Nc1ncn(Cc2ccncc2)c2ncnc1-2 [3-Pyridin-4-ylmethyl-3H-purin-6-ylamine] | 4.70 to 6.00
15 | Nc1ncn(Cc2cscn2)c2ncnc1-2 [3-Thiazol-4-ylmethyl-3H-purin-6-ylaniine] | ≤ 4.70
16 | Nc1ncn(Cc2ccsc2)c2ncnc1-2 [3-Thiophen-3-ylmethyl-3H-purin-6-ylamine] | ≤ 4.70
17 | Nc1ncn(Cc2c(Cl)ccnc2Cl)c2ncnc1-2 [3-[(2,4-dichloro-3-pyridyl)methyl]-3-hydropurine-6-ylamine] | ≥ 6.00
18 | Nc1ncn(Cc2c(Cl)cccc2Cl)c2nc(-c3cncs3)nc1-2 [3-[(2,6-Dichlorophenyl)methyl]-8-(1,3-thiazol-5-yl)-3-hydropurine-6-ylamine] | ≥ 6.00
19 | CN1CCC(c2nc3c(N)ncn(Cc4c(Cl)cccc4Cl)c-3n2)CC1 [3-[(2,6-Dichlorophenyl)methyl]-8-(1-methyl(4-piperidyl))-3-hydropurine-6-ylamine] | ≥ 6.00
20 | Cn1cc(-c2nc3c(N)ncn(Cc4c(Cl)cccc4Cl)c-3n2)cn1 [3-[(2,6-Dichlorophenyl)methyl]-8-(1-methylpyrazol-4-yl)-3-hydropurine-6-ylamine] | ≥ 6.00
21 | Cn1nccc1-c1nc2c(N)ncn(Cc3c(Cl)cccc3Cl)c-2n1 [3-[(2,6-Dichlorophenyl)methyl]-8-(1-methylpyrazol-5-yl)-3-hydropurine-6-ylamine] | ≥ 6.00
22 | Nc1ncn(Cc2c(Cl)cccc2Cl)c2nc(-c3ccccc3Cl)nc1-2 [3-[(2,6-Dichlorophenyl)methyl]-8-(2-chlorophenyl)-3-hydropurine-6-ylamine] | ≥ 6.00
23 | Nc1ncn(Cc2c(Cl)cccc2Cl)c2nc(-c3ccccc3F)nc1-2 [3-[(2,6-Dichlorophenyl)methyl]-8-(2-fluorophenyl)-3-hydropurine-6-ylamine] | ≥ 6.00
24 | Nc1ncn(Cc2c(Cl)cccc2Cl)c2nc(-c3ccco3)nc1-2 [3-[(2,6-Dichlorophenyl)methyl]-8-(2-furyl)-3-hydropurine-6-ylamine] | ≥ 6.00
25 | COc1ccccc1-c1nc2c(N)ncn(Cc3c(Cl)cccc3Cl)c-2n1 [3-[(2,6-Dichlorophenyl)methyl]-8-(2-methoxyphenyl)-3-hydropurine-6-ylamine] | ≥ 6.00

Row | Structure (SMILES) | pIC50
26 | Cc1ccccc1-c1nc2c(N)ncn(Cc3c(Cl)cccc3Cl)c-2n1 [3-[(2,6-Dichlorophenyl)methyl]-8-(2-methylphenyl)-3-hydropurine-6-ylamine] | ≥ 6.00
27 | Nc1ncn(Cc2c(Cl)cccc2Cl)c2nc(CCc3ccccc3)nc1-2 [3-[(2,6-Dichlorophenyl)methyl]-8-(2-phenylethyl)-3-hydropurine-6-ylamine] | ≥ 6.00
28 | Nc1ncn(Cc2c(Cl)cccc2Cl)c2nc(-c3cccs3)nc1-2 [3-[(2,6-Dichlorophenyl)methyl]-8-(2-thienyl)-3-hydropurine-6-ylamine] | ≥ 6.00
29 | Nc1ncn(Cc2c(Cl)cccc2Cl)c2nc(-c3cccc(Cl)c3)nc1-2 [3-[(2,6-Dichlorophenyl)methyl]-8-(3-chlorophenyl)-3-hydropurine-6-ylamine] | ≥ 6.00
30 | Nc1ncn(Cc2c(Cl)cccc2Cl)c2nc(-c3cccc(F)c3)nc1-2 [3-[(2,6-Dichlorophenyl)methyl]-8-(3-fluorophenyl)-3-hydropurine-6-ylamine] | ≥ 6.00
31 | Nc1ncn(Cc2c(Cl)cccc2Cl)c2nc(-c3ccoc3)nc1-2 [3-[(2,6-Dichlorophenyl)methyl]-8-(3-furyl)-3-hydropurine-6-ylamine] | ≥ 6.00
32 | COc1cccc(-c2nc3c(N)ncn(Cc4c(Cl)cccc4Cl)c-3n2)c1 [3-[(2,6-Dichlorophenyl)methyl]-8-(3-methoxyphenyl)-3-hydropurine-6-ylamine] | ≥ 6.00
33 | Cc1cccc(-c2nc3c(N)ncn(Cc4c(Cl)cccc4Cl)c-3n2)c1 [3-[(2,6-Dichlorophenyl)methyl]-8-(3-methylphenyl)-3-hydropurine-6-ylamine] | ≥ 6.00
34 | Nc1ncn(Cc2c(Cl)cccc2Cl)c2nc(-c3cccnc3)nc1-2 [3-[(2,6-Dichlorophenyl)methyl]-8-(3-pyridyl)-3-hydropurine-6-ylamine] | ≥ 6.00
35 | Nc1ncn(Cc2c(Cl)cccc2Cl)c2nc(-c3ccsc3)nc1-2 [3-[(2,6-Dichlorophenyl)methyl]-8-(3-thienyl)-3-hydropurine-6-ylamine] | ≥ 6.00
36 | Nc1ncn(Cc2c(Cl)cccc2Cl)c2nc(-c3cnccc3Cl)nc1-2 [3-[(2,6-Dichlorophenyl)methyl]-8-(4-chloro(3-pyridyl))-3-hydropurine-6-ylamine] | ≥ 6.00
37 | Nc1ncn(Cc2c(Cl)cccc2Cl)c2nc(-c3ccc(Cl)cc3)nc1-2 [3-[(2,6-Dichlorophenyl)methyl]-8-(4-chlorophenyl)-3-hydropurine-6-ylamine] | ≥ 6.00
38 | Nc1ncn(Cc2c(Cl)cccc2Cl)c2nc(-c3ccc(F)cc3)nc1-2 [3-[(2,6-Dichlorophenyl)methyl]-8-(4-fluorophenyl)-3-hydropurine-6-ylamine] | ≥ 6.00
39 | COc1ccncc1-c1nc2c(N)ncn(Cc3c(Cl)cccc3Cl)c-2n1 [3-[(2,6-Dichlorophenyl)methyl]-8-(4-methoxy(3-pyridyl))-3-hydropurine-6-ylamine] | ≥ 6.00
40 | COc1ccc(-c2nc3c(N)ncn(Cc4c(Cl)cccc4Cl)c-3n2)cc1 [3-[(2,6-Dichlorophenyl)methyl]-8-(4-methoxyphenyl)-3-hydropurine-6-ylamine] | ≥ 6.00
41 | Cc1csc(-c2nc3c(N)ncn(Cc4c(Cl)cccc4Cl)c-3n2)c1 [3-[(2,6-Dichlorophenyl)methyl]-8-(4-methyl(2-thienyl))-3-hydropurine-6-ylamine] | ≤ 4.70
42 | Cc1ccncc1-c1nc2c(N)ncn(Cc3c(Cl)cccc3Cl)c-2n1 [3-[(2,6-Dichlorophenyl)methyl]-8-(4-methyl(3-pyridyl))-3-hydropurine-6-ylamine] | ≥ 6.00
43 | Cc1ccc(-c2nc3c(N)ncn(Cc4c(Cl)cccc4Cl)c-3n2)cc1 [3-[(2,6-Dichlorophenyl)methyl]-8-(4-methylphenyl)-3-hydropurine-6-ylamine] | ≥ 6.00
44 | Nc1ncn(Cc2c(Cl)cccc2Cl)c2nc(C3CCNCC3)nc1-2 [3-[(2,6-Dichlorophenyl)methyl]-8-(4-piperidyl)-3-hydropurine-6-ylamine] | ≥ 6.00
45 | Nc1ncn(Cc2c(Cl)cccc2Cl)c2nc(-c3ccncc3)nc1-2 [3-[(2,6-Dichlorophenyl)methyl]-8-(4-pyridyl)-3-hydropurine-6-ylamine] | ≥ 6.00
46 | Cc1ccc(-c2nc3c(N)ncn(Cc4c(Cl)cccc4Cl)c-3n2)s1 [3-[(2,6-Dichlorophenyl)methyl]-8-(5-methyl(2-thienyl))-3-hydropurine-6-ylamine] | ≥ 6.00
47 | Nc1ncn(Cc2c(Cl)cccc2Cl)c2nc(-c3cccc(Cl)n3)nc1-2 [3-[(2,6-Dichlorophenyl)methyl]-8-(6-chloro(2-pyridyl))-3-hydropurine-6-ylamine] | ≥ 6.00
48 | COc1ccc(-c2nc3c(N)ncn(Cc4c(Cl)cccc4Cl)c-3n2)cn1 [3-[(2,6-Dichlorophenyl)methyl]-8-(6-methoxy(3-pyridyl))-3-hydropurine-6-ylamine] | ≥ 6.00
49 | Nc1ncn(Cc2c(Cl)cccc2Cl)c2nc(C(c3ccccc3)c3ccccc3)nc1-2 [3-[(2,6-Dichlorophenyl)methyl]-8-(diphenylmethyl)-3-hydropurine-6-ylamine] | ≥ 6.00
